Data on one molecule can be found in EPA's ToxValDB 9.5 (doi:10.2903/j.efsa.2017.4874).

The test system of one data set is Anas platyrhynchos. The settings on record: short-term; oral; feed; mortality.
The next data set concerns Apis mellifera. The settings on record: acute, mortality.
A further data set relates to Colinus virginianus. The settings on record: for LD50: acute, oral, mortality.
Another data set deals with Danio rerio. The settings on record: subchronic; duration: 35 days; reproduction.
The subject of another data set is Daphnia magna. Conditions: chronic/long-term; duration: 21 days; reproduction.
Another data set has as its system Folsomia candida. The settings on record: chronic/long-term; mortality.
For a further data set, the system named is Mus musculus. Conditions: chronic.
In the next data set the test system is Oncorhynchus mykiss. The settings on record: acute; duration: 96 hours; mortality.
The next data set deals with Oryctolagus sp. The settings on record: developmental; development.
For another data set, the system named is Rattus norvegicus. Conditions: oral.
For a further data set, the system named is Tagia sp. Conditions: chronic/long-term; growth.
The next data set has as its system Aphidius rhopalosiphi. The data set is described as follows: LR50; higher = less toxic. Conditions: not reported; mortality.

In brackets after ≈: the same amount, converted by molar mass.

One may read the NOAEL as the highest dose or exposure tested at which no adverse effect was seen. As usually defined, the LC50 is the concentration that kills 50% of the test population. As for `O=C(Nc1ccccc1)Nc1ccnc(Cl)c1` [Forchlorfenuron], the LD50 is greater than 3120 mg/kg-day with Anas platyrhynchos; greater than 30 µg/piece in the data set with Apis mellifera (dermal); greater than 34.1 µg/piece with Apis mellifera (oral, unspecified); greater than 3120 mg/kg-day in the data set with Colinus virginianus (diet); greater than 2250 mg/kg-day with Colinus virginianus; 4920 mg/kg-day with Rattus norvegicus (acute, mortality). Moreover, the NOEC with Colinus virginianus (reproduction developmental) turned out to be 88.4 mg/kg-day; with Danio rerio, 1.01 mg/L; in the data set with Daphnia magna it was 1.96 mg/L; in the data set on Folsomia candida it was 3.72 mg/kg; in the data set on Tagia sp., 0.3 mg/kg. In addition, the NOAEL in the data set with Mus musculus (duration: 24 months, histopathology: neoplastic) came to 5 mg/kg-day; in the data set with Mus musculus (histopathology: nonneoplastic), 4.9 mg/kg-day; with Oryctolagus sp., 50 mg/kg-day; in the data set on Rattus norvegicus (reproduction developmental, diet, body weight), 11 mg/kg-day; in the data set with Rattus norvegicus (subchronic, duration: 90 days, organ weight) it was 16.2 mg/kg-day. Also, the LC50 in the data set with Oncorhynchus mykiss turned out to be 1.93 µg/mL (≈ 7.79 µM). In the data set on Aphidius rhopalosiphi, this molecule showed an LR50 greater than 10 g/ha.
